Among the data in ChEMBL document CHEMBL3227969, “Synthesis and biological activity of 8-oxadihydropteridines” (J Med Chem, 1979) are IC50 and Activity values, retold here.

One data set addresses T1, Dihydrofolate reductase (Homo sapiens, UniProt P00374).
T1 sequence (P00374 whole entry): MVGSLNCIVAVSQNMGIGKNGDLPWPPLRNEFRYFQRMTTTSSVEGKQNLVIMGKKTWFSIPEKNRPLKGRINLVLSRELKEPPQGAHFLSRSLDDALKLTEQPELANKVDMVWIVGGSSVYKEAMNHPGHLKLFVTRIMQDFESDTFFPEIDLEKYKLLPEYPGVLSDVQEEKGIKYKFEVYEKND
Nature of the data set: Inhibition of dihydrofolate reductase (unknown origin) using dihydrofolic acid as substrate by spectrophotometry.

The subject of data set [1] is Enterococcus faecalis. Nature of the data set: Antibacterial activity against Streptococcus faecalis ATCC 8043. It counts as organism-based.
The subject of data set [2] is Enterococcus faecalis. Nature of the data set: Antibacterial activity against Streptococcus faecalis ATCC 8043 at 1 ug/ml. The format is organism-based.

Regarding `CC1=Nc2c(O)nc(N)nc2OC1C` (configuration not stated), the IC50 against Dihydrofolate reductase worked out at 377 µM. The Activity entry in the data set with Enterococcus faecalis [1] is given as “Toxic”.
For the compound `Nc1nc(O)c2c(n1)OC(c1ccccc1)C(c1ccccc1)=N2` (configuration not stated), in the data set on Enterococcus faecalis [1], the Activity entry is “Toxic”.
For `CC1Oc2nc(N)nc(O)c2N=C1c1ccccc1` (configuration not stated), in the data set on Enterococcus faecalis [1], the Activity result is reported as “Toxic”.
At Dihydrofolate reductase, `CC1=Nc2c(O)nc(N)nc2OC1c1ccccc1` (configuration not stated) yielded an IC50 of 740 µM. Besides, in the data set on Enterococcus faecalis [1], the Activity result is “Toxic”.
Regarding `Nc1nc(O)c2c(n1)OCC(c1ccccc1)=N2`, the IC50 against Dihydrofolate reductase stood at 57 µM. In addition, in the data set on Enterococcus faecalis [1], the Activity result is listed as “Toxic”.
`CC1=Nc2c(O)nc(N)nc2OC1` registered an IC50 on Dihydrofolate reductase of 242 µM. In the data set on Enterococcus faecalis [1], the Activity entry was “Toxic”.
For the compound `Nc1nc(O)c2c(n1)OCC(Cc1ccccc1)=N2`, the Activity result in the data set with Enterococcus faecalis [1] is reported as “Toxic”.
Regarding `Nc1nc(O)c2c(n1)OCC(CCc1ccccc1)=N2`, in the data set on Enterococcus faecalis [1], the Activity entry is on record as “Toxic”.
In the case of `Nc1nc(O)c2c(n1)OCC(CCCc1ccccc1)=N2`, the Activity result in the data set with Enterococcus faecalis [1] is given as “Toxic”.
In the case of `Nc1nc(O)c2c(n1)OCC(CCCCc1ccccc1)=N2`, the Activity result in the data set on Enterococcus faecalis [1] is “Toxic”.
`CCCCCC1=Nc2c(O)nc(N)nc2OC1`: on Dihydrofolate reductase, the IC50 turned out to be 11 µM. For the same compound, the Activity entry with Enterococcus faecalis [1] is “Toxic”.
`CC1=Nc2c(N)nc(N)nc2OC1C` (configuration not stated) displayed an IC50 against Dihydrofolate reductase of 903 µM. For the same compound, the Activity entry in the data set on Enterococcus faecalis [1] is recorded as “Toxic”.
Regarding `Nc1nc(N)c2c(n1)OC(c1ccccc1)C(c1ccccc1)=N2` (configuration not stated), the Activity result in the data set with Enterococcus faecalis [1] is recorded as “Toxic”.
Compound `Nc1nc(N)c2c(n1)OCC(c1ccccc1)=N2` had an IC50 against Dihydrofolate reductase of 168 µM. In addition, the Activity entry in the data set on Enterococcus faecalis [1] is given as “Toxic”.
As for `CN(Cc1cnc2nc(N)nc(N)c2n1)c1ccc(C(=O)N[C@@H](CCC(=O)O)C(=O)O)cc1` [METHOTREXATE], the Activity result in the data set on Enterococcus faecalis [2] was “Toxic”.
